Laboratory results reported in patent US9980973B2, “Bicyclic heterocycle compounds and their uses in therapy” (ASTEX THERAPEUTICS LIMITED, priority 2012, dated 2018).
Where a name gives a salt, the structure may show the parent alone. Read-outs that look alike come from different tables or passages of the source.

Experiments:
[1] = target: T1, BIR3 domain of human XIAP (Homo sapiens, UniProt P98170); assay: XIAP in vitro competitive displacement binding assay (fluorescence polarization); conditions: for Xiap IC50 or PI μM (PI) / inhibition at 0.04 µM: PI at 0.04 μM; for inhibition at 0.04 µM: 1 h, read-out: Xiap IC50 or PI μM (PI)
T1 construct: BIR3 domain of human XIAP (residues 252-350) fused to a His-tag; His-tag (cleaved yes); made in house; host or cells: Escherichia coli

[2] = target: T2, BIR3 domain of human cIAP-1 (Homo sapiens, UniProt Q13490); assay: cIAP-1 in vitro competitive displacement binding assay (fluorescence polarization); conditions: PI at […]
T2 construct: human cIAP-1 (residues 267-363) fused to a GST-tag; GST-tag (cleaved yes); made in house; host or cells: Escherichia coli

[3] = test system: EVSA-T (human breast carcinoma); assay: Anti-proliferative activity, Alamar Blue assay, EVSA-T; assay type: cell-based
[4] = 60 min, dihydrochloride, 0.04 µM
[5] = EVSA-T cells, 72 hours, Alamar Blue, dihydrochloride, read-out: EVSA-T prolif
[6] = plain number = IC50, average where more than one data point, read-out: Xiap IC50 or PI μM (IC50)
[7] = EVSA-T cells, 72 hours, Alamar Blue, hydrochloride, read-out: EVSA-T prolif
[8] = EVSA-T cells, 72 hours, Alamar Blue, read-out: EVSA-T prolif
[9] = Homo sapiens, EVSA-T, read-out: EC50 in EVSA-T cell line assays
[10] = Homo sapiens, EVSA-T, 72 h, EVSA-T cells, 72 hours, Alamar Blue, read-out: EVSA-T prolif

T2 sequence (Q13490 267-363): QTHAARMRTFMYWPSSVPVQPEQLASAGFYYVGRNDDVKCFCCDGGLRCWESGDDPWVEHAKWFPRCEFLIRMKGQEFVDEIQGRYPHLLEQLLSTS
T1 sequence (P98170 252-350): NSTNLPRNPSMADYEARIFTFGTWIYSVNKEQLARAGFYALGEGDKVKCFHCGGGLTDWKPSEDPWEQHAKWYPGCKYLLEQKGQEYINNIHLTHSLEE

C[C@@H]1CN(CC(=O)N2CC(C)(C)c3ncc(C(O)c4ccccc4F)cc32)[C@@H](CN2[C@H](C)COC[C@H]2C)CN1 (single isomer, unassigned) [Example 108, 2-[(2R,5R)-2-{[(3R,5R)-3,5-Dimethylmorpholin-4-yl]methyl}-5-methylpiperazin-1-yl]-1-{6-[(R or S)-(2-fluorophenyl)-(hydroxy)methyl]-3,3-dimethyl-1H,2H,3H-pyrrolo[3,2-b]pyridin-1-yl}ethan-1-one dihydrochloride]
Xiap IC50 or PI μM (PI) [1, 4]: 66%@0.04
cIAP1 IC50 or PI μM (PI) ([2]; 180 min, dihydrochloride, […]): 97%@0.012
EC50 [3, 5]: 2.7 nM

C[C@@H]1CN(CC(=O)N2CC(C)(C)c3ncc(C(O)c4cccc(F)c4)cc32)[C@@H](CN2[C@H](C)COC[C@H]2C)CN1 (single isomer, unassigned) [Example 106, 2-[(2R,5R)-2-{[(3R,5R)-3,5-Dimethylmorpholin-4-yl]methyl}-5-methylpiperazin-1-yl]-1-{6-[(R or S)-(3-fluorophenyl)-(hydroxy)methyl]-3,3-dimethyl-1H,2H,3H-pyrrolo[3,2-b]pyridin-1-yl}ethan-1-one dihydrochloride]
Xiap IC50 or PI μM (PI) [1, 4]: 42%@0.04
cIAP1 IC50 or PI μM (PI) ([2]; 180 min, dihydrochloride, […]): 88%@0.012
EC50 [3, 5]: 4.3 nM

C[C@@H]1CN(CC(=O)N2CC(C)(C)c3ncc(Cc4ccc(F)cc4)cc32)[C@@H](CN2CCOCC2C(F)(F)F)CN1 (single isomer, unassigned) [Example 27, 1-{6-[(4-Fluorophenyl)methyl]-3,3-dimethyl-1H,2H,3H-pyrrolo[3,2-b]pyridin-1-yl}-2-[(2R,5R)-5-methyl-2-{[3-([R or S]trifluoromethyl)morpholin-4-yl]methyl}piperazin-1-yl]ethan-1-one hydrochloride]
IC50 [1, 6]: 0.13 µM
cIAP1 IC50 or PI μM (PI) ([2]; 180 min, hydrochloride, […]): 90%@0.012
EC50 [3, 7]: 15 nM

C[C@@H]1CN(CC(=O)N2CC(C)(C)c3cnc(Cc4ccc(F)cc4)cc32)[C@@H](CN2CCOC[C@]2(C)CO)CN1.Cl.Cl [Example 61, 1-{6-[(4-Fluorophenyl)methyl]-3,3-dimethyl-1H,2H,3H-pyrrolo[3,2-c]pyridin-1-yl}-2-[(2R,5R)-2-{[(3S)-3-(hydroxymethyl)-3-methylmorpholin-4-yl]methyl}-5-methylpiperazin-1-yl]ethan-1-one, dihydrochloride]
Xiap IC50 or PI μM (PI) [1]: 57%@0.04
cIAP1 IC50 or PI μM (PI) [2]: 99%@0.012
EC50 [3, 8]: 6 nM

COCC1(C)COCCN1C[C@H]1CN[C@H](C)CN1CC(=O)N1CC(C)(C)c2ncc(Cc3ccc(F)cc3)cc21 (single isomer, unassigned) [Example 100, dihydrochloride]
inhibition at 0.04 µM [1]: 56%
IC50 ([1]; or at least 50% inhibition of the activity at 0.1 μM, read-out: IC50 in the XIAP assay): < 0.1 µM
cIAP1 IC50 or PI μM (PI) ([2]; 180 min, dihydrochloride, […]): 99%@0.012
EC50 [3, 5]: 0.92 nM
EC50 [3, 9]: < 1000 nM

C[C@@H]1CN(CC(=O)N2CC(C)(C)c3ncc(C(O)c4cccc(F)c4F)cc32)[C@@H](CN2[C@H](C)COC[C@H]2C)CN1 (single isomer, unassigned) [Example 112, (R or S)-1-{6-[(2,3-Difluorophenyl)(hydroxy)meth-yl]-3,3-dimethyl-1H,2H,3H-pyrrolo[3,2-b]pyridin-1-yl}-2-[(2R,5R)-2-{[(3R,5R)-3,5-dimethylmorpholin-4-yl]methyl}-5-methylpiperazin-1-yl]ethan-1-one dihdrochloride]
Xiap IC50 or PI μM (PI) ([1]; 60 min, 0.04 µM): 47%@0.04
cIAP1 IC50 or PI μM (PI) ([2]; 180 min, […]): 90%@0.012
EC50 [3, 8]: 20 nM

C[C@@H]1CN(CC(=O)N2CC(C)(C)c3ncc(Cc4ccc(F)cc4)cc32)[C@@H](CN2CCCCC2C(F)(F)F)CN1 (single isomer, unassigned) [Example 26, 1-{6-[(4-Fluorophenyl)methyl]-3,3-dimethyl-1H,2H,3H-pyrrolo[3,2-b]pyridin-1-yl}-2-[(2R,5R)-5-methyl-2-{[2-([R or S]trifluoromethyl)piperidin-1-yl]methyl}piperazin-1-yl]ethan-1-one hydrochloride]
IC50 [1, 6]: 0.21 µM
cIAP1 IC50 or PI μM (PI) ([2]; 180 min, hydrochloride, […]): 94%@0.012
EC50 [3, 7]: 120 nM

C[C@@H]1CN(CC(=O)N2CC(C)(C)c3ncc(Cc4ccc(F)cc4)cc32)[C@@H](CN2C[C@@H]3C[C@H]2CO3)CN1 [Example 7, 1-{6-[(4-Fluorophenyl)methyl]-3,3-dimethyl-1H,2H,3H-pyrrolo[3,2-b]pyridin-1-yl}-2-[(2R,5R)-5-methyl-2-[(1S,4S)-2-oxa-5-azabicyclo[2.2.1]heptan-5-ylmethyl]piperazin-1-yl]ethan-1-one dihydrochloride]
IC50 [1, 6]: 0.16 µM
EC50 [3, 10]: 6.2 nM
EC50 [3, 9]: < 1000 nM

C[C@@H]1CN(CC(=O)N2CC(C)(C)c3ncc(Cc4ccc(F)cc4)cc32)[C@@H](CN2CC3CCC(C2)O3)CN1 [Example 18, 1-{6-[(4-Fluorophenyl)methyl]-3,3-dimethyl-1H,2H,3H-pyrrolo[3,2-b]pyridin-1-yl}-2-[(2R,5R)-5-methyl-2-{8-oxa-3-azabicyclo[3.2.1]octan-3-ylmethyl}piperazin-1-yl]ethan-1-one dihydrochloride]
inhibition at 0.04 µM [1]: 35%
EC50 [3, 10]: 1.8 nM
EC50 [3, 9]: < 1000 nM

CCCC(F)(F)c1cc2c(cn1)C(C)(C)CN2C(=O)CN1C[C@@H](C)NC[C@@H]1CN1CCN(C(C)=O)C[C@H]1C [Example 60, 2-[(2R,5R)-2-{[(2R)-4-Acetyl-2-methylpiperazin-1-yl]methyl}-5-methylpiperazin-1-yl]-1-[6-(1,1-difluorobutyl)-3,3-dimethyl-1H,2H,3H-pyrrolo[3,2-c]pyridin-1-yl]ethan-1-one, dihydrochloride]
inhibition at 0.04 µM [1]: 74%
EC50 [3, 10]: 6.7 nM
EC50 [3, 9]: < 1000 nM

C[C@@H]1CN(CC(=O)N2CC(C)(C)c3ncc(Cc4ccc(F)cc4)cc32)[C@@H](CN2CCCCC2C(F)(F)F)CN1 (single isomer, unassigned) [Example 24, 1-{6-[(4-Fluorophenyl)methyl]-3,3-dimethyl-1H,2H,3H-pyrrolo[3,2-b]pyridin-1-yl}-2-[(2R,5R)-5-methyl-2-{[2-([R or S]trifluoromethyl)piperidin-1-yl]methyl}piperazin-1-yl]ethan-1-one hydrochloride]
IC50 [1, 6]: 0.13 µM
EC50 [3, 7]: 13 nM
EC50 [3, 9]: < 1000 nM

CCC(F)(F)c1cnc2c(c1)N(C(=O)CN1C[C@@H](C)NC[C@@H]1CN1[C@H](C)COC[C@H]1C)CC2(C)C [Example 43, 1-[6-(1,1-Difluoropropyl)-3,3-dimethyl-1H,2H,3H-pyrrolo[3,2-b]pyridin-1-yl]-2-[(2R,5R)-2-{[(3R,5R)-3,5-dimethylmorpholin-4-yl]methyl}-5-methylpiperazin-1-yl]ethan-1-one, dihydrochloride]
inhibition at 0.04 µM [1]: 62%
EC50 [3, 10]: 8.3 nM
EC50 [3, 9]: < 1000 nM

C[C@@H]1CN(CC(=O)N2CC(C)(C)c3ncc(Cc4ccc(F)cc4)cc32)[C@@H](CN2CCOC[C@H]2CF)CN1 [Example 19, 2-[(2R,5R)-2-{[(3S)-3-(Fluoromethyl)morpholin-4-yl]methyl}-5-methylpiperazin-1-yl]-1-{6-[(4-fluorophenyl)methyl]-3,3-dimethyl-1H,2H,3H-pyrrolo[3,2-b]pyridin-1-yl}ethan-1-one dihydrochloride]
inhibition at 0.04 µM [1]: 43%
EC50 [3, 10]: 0.65 nM
EC50 [3, 9]: < 1000 nM

C[C@@H]1CN(CC(=O)N2CC(C)(C)c3ncc(Cc4ccc(F)cc4)cc32)[C@@H](CN2CCNC(=O)C2)CN1 [Example 42, 4-{[(2R,5R)-1-(2-{6-[(4-Fluorophenyl)methyl]-3,3-dimethyl-1H,2H,3H-pyrrolo[3,2-b]pyridin-1-yl}-2-oxoethyl)-5-methylpiperazin-2-yl]methyl}piperazin-2-one dihydrochloride]
inhibition at 0.04 µM [1]: 44%
EC50 [3, 10]: 11 nM
EC50 [3, 9]: < 1000 nM

CCCC(F)(F)c1cc2c(cn1)C(C)(C)CN2C(=O)CN1C[C@@H](C)NC[C@@H]1CN1CCOC[C@]1(C)CO (single isomer, unassigned) [Example 69, dihydrochloride]
inhibition at 0.04 µM [1]: 71%
EC50 [3, 10]: 5.6 nM
EC50 [3, 9]: < 1000 nM
